This passage reports EC50 results from patent US9062028B2, “Bicyclic nitrogen containing heteroaryl TGR5 receptor modulators” (Bristol-Myers Squibb Company, priority 2011, dated 2015).

Structures can show the parent of a compound that is named as a salt.

The experiment deals with T1, recombinant human TGR5 (Homo sapiens, UniProt Q8TDU6).
T1 construct: expressed in transfected cells
T1 sequence (Q8TDU6 1-330): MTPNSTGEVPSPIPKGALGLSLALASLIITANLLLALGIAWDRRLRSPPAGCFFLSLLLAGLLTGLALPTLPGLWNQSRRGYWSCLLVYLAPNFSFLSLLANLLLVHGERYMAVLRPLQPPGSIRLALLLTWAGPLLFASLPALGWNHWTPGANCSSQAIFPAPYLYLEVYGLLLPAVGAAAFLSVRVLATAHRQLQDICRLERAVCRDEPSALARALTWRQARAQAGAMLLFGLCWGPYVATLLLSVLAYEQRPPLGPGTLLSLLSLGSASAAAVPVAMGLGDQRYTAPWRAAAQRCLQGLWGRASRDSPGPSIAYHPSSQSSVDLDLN
The experiment in a line: cAMP assay (cAMP accumulation, HTRF) in CHOK1 cells stably expressing TGR5. In kind it is cell-based. Conditions: CHOK1 cells stably expressing human TGR5, 30 minutes at RT, 1% DMSO. The gist of the method: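 Agonist-induced cAMP accumulation: stable TGR5-CHOK1 cells treated 30 min at RT with compound (1% DMSO) plus 0.1 mM IBMX. HTRF ratio converted to nM cAMP via standard curve; EC50 from four-parameter logistic fit, midpoint between baseline and maximum.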
In general terms: Changes in cAMP serve as a functional read-out for many G protein-coupled receptors.
In the case of `Cc1c(Cl)cccc1OCCCC(=O)N1CCCOc2c(-c3cnn(Cc4ccc(C(=O)N[C@@H](CC(=O)O)C(=O)O)cc4)c3)cccc21` [Example 767, (S)-2-(4-((4-(5-(4-(3-Chloro-2-methylphenoxy)butanoyl)-2,3,4,5-tetrahydrobenzo[b][1,4]oxazepin-9-yl)-1H-pyrazol-1-yl)methyl)benzamido)succinic acid], the 50% effective concentration (EC50) was found to be 1.52 µM.

For `Cc1cccc(OCCCC(=O)N2CCCc3c(-c4cnn(Cc5cccc(C(=O)N(CC(=O)O)CC(=O)O)c5)c4)cccc32)c1C` [Example 475, 2,2′-(3-((4-(1-(4-(2,3-Dimethylphenoxy)butanoyl)-1,2,3,4-tetrahydroquinolin-5-yl)-1H-pyrazol-1-yl)methyl)benzoylazanediyl)diacetic acid], the EC50 amounted to 2.6 µM.

For the compound `Cc1c(Cl)cccc1OCCCC(=O)N1CCSc2c(-c3cnn(Cc4cccc(C(=O)NCCC[C@H](N)C(=O)OC(C)C)c4)c3)cccc21` [Example 635, (S)-Isopropyl 2-amino-5-(3-((4-(4-(4-(3-chloro-2-methylphenoxy)butanoyl)-3,4-dihydro-2H-benzo[b][1,4]thiazin-8-yl)-1H-pyrazol-1-yl)methyl)benzamido)pentanoate, TFA salt], the half-maximal effective concentration (EC50) is 0.177 µM.

Regarding `Cc1c(Cl)cccc1OC(C)(C)COC(=O)N1CCCOc2c(-c3cnn(Cc4c(F)cc(C(=O)NCCS(=O)(=O)O)cc4Cl)c3)cccc21` [Example 807, 2-(3-Chloro-4-((4-(5-((2-(3-chloro-2-methylphenoxy)-2-methylpropoxy)carbonyl)-2,3,4,5-tetrahydrobenzo[b][1,4]oxazepin-9-yl)-1H-pyrazol-1-yl)methyl)-5-fluorobenzamido)ethanesulfonic acid], the concentration for a half-maximal effect (EC50) turned out to be 1.33 µM.

With `Cc1cccc(OCCCC(=O)N2CC3CC3c3c(-c4cnn(Cc5c(F)cc(C(=O)NCCS(=O)(=O)O)cc5Cl)c4)cccc32)c1C` (stereo not shown) [Example 69C, 2-(3-Chloro-4-((4-(3-(4-(2,3-dimethylphenoxy)butanoyl)-1a,2,3,7b-tetrahydro-1H-cyclopropa[c]quinolin-7-yl)-1H-pyrazol-1-yl)methyl)-5-fluorobenzamido)ethanesulfonic acid], the EC50 is 0.058 µM.

`Cc1cccc(OCCCC(=O)N2C[C@H]3C[C@H]3c3c(-c4cnn(Cc5cccc(NC(=O)NCC(=O)O)c5)c4)cccc32)c1C` (single isomer, unassigned) [Example 251]: the EC50 is 0.644 µM.

Consider `Cc1c(Cl)cccc1OCCCC(=O)N1C[C@@H]2C[C@@H]2c2c(-c3cnn(Cc4cccc(N)c4)c3)cccc21` [Example 924A, 1-((1aR,7bS)-7-(1-(3-Aminobenzyl)-1H-pyrazol-4-yl)-1a,2-dihydro-1H-cyclopropa[c]quinolin-3(7bH)-yl)-4-(3-chloro-2-methylphenoxy)butan-1-one, TFA salt], for which the EC50 is 0.038 µM.

For the compound `Cc1cccc(OCCCC(=O)N2CCCc3c(-c4cnn(CC5(CNC(=O)NCCS(=O)(=O)O)CC5)c4)cccc32)c1C` [Example 69J, 2-(3-((1-((4-(1-(4-(2,3-Dimethylphenoxy)butanoyl)-1,2,3,4-tetrahydroquinolin-5-yl)-1H-pyrazol-1-yl)methyl)cyclopropyl)methyl)ureido)ethanesulfonic acid], the 50% effective concentration (EC50) stood at 5 µM.

On to `Cc1cccc(OCCCC(=O)N2CCCc3c(-c4cnn(Cc5cccc(C(=O)N6CCC(C(=O)O)C6)c5)c4)cccc32)c1C` (stereo not shown) [Example 859, 1-(3-((4-(1-(4-(2,3-Dimethylphenoxy)butanoyl)-1,2,3,4-tetrahydroquinolin-5-yl)-1H-pyrazol-1-yl)methyl)benzoyl)pyrrolidine-3-carboxylic acid], for which the EC50 is 1.36 µM.

Take `Cc1c(Cl)cccc1OCCCC(=O)N1CCSc2c(-c3cnn(Cc4c(F)cc(C(=O)O)cc4Cl)c3)cccc21` [Example 358, 3-Chloro-4-((4-(4-(4-(3-chloro-2-methylphenoxy)butanoyl)-3,4-dihydro-2H-benzo[b][1,4]thiazin-8-yl)-1H-pyrazol-1-yl)methyl)-5-fluorobenzoic acid]: the concentration giving a half-maximal response (EC50) was 0.043 µM.

By EC50 is commonly meant the concentration that produces a half-maximal response.
